Laboratory results published in patent publication US12077503B2, “Substituted cyclic amides and their use as herbicides” (FMC CORPORATION, priority 2015, dated 2024).
Where two headings read alike, the source gives them in different places.

Experiments:
Format in all cases: in vivo
corn (Zea mays) = assay: Test A postemergence; details: Zea mays, post-emergence, 240 h
Method in brief: (§1)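 In a loam soil and sand blend, planted seeds got a preemergence directed soil spray, and young plants at the one- to two-leaf stage, 2–10 cm high, got a postemergence application; ~10 d greenhouse hold; injury rated visually, 0 = none, 100 = complete control.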

Kochia (Kochia scoparia) = assay: Test A postemergence; details: Bassia scoparia, post-emergence, 240 h; for pest or weed control at 125 g/ha: 125 g ai/ha, postemergence
Method in brief: as §1

[1] = tested on: ryegrass, Italian (Italian ryegrass, Lolium multiflorum); assay: Test A postemergence; details: Lolium multiflorum, post-emergence, 240 h; for pest or weed control at 125 g/ha: 125 g ai/ha, postemergence
Method in brief: as §1

[2] = tested on: pigweed (Amaranthus retroflexus); assay: Test A postemergence; details: Amaranthus retroflexus, post-emergence, 240 h; for pest or weed control at 125 g/ha: 125 g ai/ha, postemergence
Method in brief: as §1

[3] = tested on: Galium (catchweed bedstraw, Galium aparine); assay: Test A postemergence; details: Galium, post-emergence, 240 h; for pest or weed control at 125 g/ha: 125 g ai/ha, postemergence
Method in brief: as §1

[4] = tested on: barnyardgrass (Echinochloa crus-galli); assay: Test A postemergence; details: Echinochloa crus-galli, post-emergence, 240 h; for pest or weed control at 125 g/ha: 125 g ai/ha, postemergence
Method in brief: as §1

[5] = tested on: giant foxtail (Setaria faberii); assay: Test A postemergence; details: Setaria faberi, post-emergence, 240 h; for pest or weed control at 125 g/ha: 125 g ai/ha, postemergence
Method in brief: as §1

[6] = tested on: wheat (Triticum aestivum); assay: Test A postemergence; details: Triticum aestivum, post-emergence, 240 h, Postemergence, read-out: Plant response rating, Wheat
Method in brief: as §1

[7] = tested on: blackgrass (Alopecurus myosuroides); assay: Test A postemergence; details: Alopecurus myosuroides, post-emergence, 240 h; for pest or weed control at 125 g/ha: 125 g ai/ha, postemergence
Method in brief: as §1

[8] = tested on: ragweed (common ragweed, Ambrosia elatior); assay: Test A postemergence; details: Ambrosia artemisiifolia, post-emergence, 240 h; for pest or weed control at 125 g/ha: 125 g ai/ha, postemergence
Method in brief: as §1

[9] = tested on: ducksalad (Heteranthera limosa); assay: Test B flooded paddy test; details: Heteranthera limosa, Flood, 250 g ai/ha, read-out: Ducksalad plant response rating
Method in brief: (§2)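 Evaluation by eye, against controls, occurred 13–15 d post-treatment in a greenhouse, using a 0 (no effect) to 100 (complete control) scale. Application was into the paddy water, 3 cm deep over the soil, on 2-leaf plants.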

[10] = tested on: sedge, umbrella (small-flower umbrella sedge, Cyperus difformis); assay: Test B flooded paddy test; details: Cyperus difformis, Flood, 250 g ai/ha, read-out: Sedge, Umbrella plant response rating
Method in brief: as §2

[11] = tested on: barnyardgrass (Echinochloa crus-galli); assay: Test B flooded paddy test; details: Echinochloa crus-galli, Flood, 250 g ai/ha, read-out: Barnyardgrass plant response rating
Method in brief: as §2

rice (Oryra sativa) = assay: Test B flooded paddy test; details: Oryza sativa, Flood, 250 g ai/ha, read-out: Rice plant response rating
Method in brief: as §2

[12] = scale of 0 to 100 where 0 is no effect and 100 is complete control
[13] = 0 to 100 scale where 0 is no effect and 100 is complete control

**Q.** With `C/C=C/C1CNC(=O)C1C(=O)Nc1cccc(F)c1F` (stereo not shown) [Compound 793] as the molecule, how does the Corn plant response rating (crop injury, 0 = no effect, 100 = complete kill) at 125 g/ha (corn (Zea mays); 125 g ai/ha, postemergence, visual injury after approximately 10 d, 0 to 100 scale (0 no effect, 100 complete control)) read?
**A.** 0%

**Q.** And the Corn plant response rating (crop injury, 0 = no effect, 100 = complete kill) at 31 g/ha (corn (Zea mays); Postemergence, 31 g ai/ha, visual injury after approx. 10 d, 0 to 100 scale, 0 no effect, 100 complete control)?
**A.** 0%

**Q.** What about the pest or weed control at 125 g/ha (Kochia (Kochia scoparia); visual injury after approximately 10 d, 0 to 100 scale (0 no effect, 100 complete control), read-out: Plant response rating, Kochia) of the same molecule?
**A.** 0%

**Q.** What about the pest or weed control at 31 g/ha (Kochia (Kochia scoparia); Postemergence, 31 g ai/ha, visual injury after approx. 10 d, 0 to 100 scale, 0 no effect, 100 complete control, read-out: Plant response rating, Kochia) of the same molecule?
**A.** 0%

**Q.** What about the pest or weed control at 125 g/ha ([1]; visual injury after approximately 10 d, 0 to 100 scale (0 no effect, 100 complete control), read-out: Plant response rating, Ryegrass, Italian) of the same molecule?
**A.** 0%

**Q.** And the pest or weed control at 31 g/ha ([1]; Postemergence, 31 g ai/ha, visual injury after approx. 10 d, 0 to 100 scale, 0 no effect, 100 complete control, read-out: Plant response rating, Ryegrass, Italian)?
**A.** 0%

**Q.** And the pest or weed control at 125 g/ha ([2]; visual injury after approximately 10 d, 0 to 100 scale (0 no effect, 100 complete control), read-out: Plant response rating, Pigweed)?
**A.** 0%

**Q.** And the pest or weed control at 31 g/ha ([2]; Postemergence, 31 g ai/ha, visual injury after approx. 10 d, 0 to 100 scale, 0 no effect, 100 complete control, read-out: Plant response rating, Pigweed)?
**A.** 0%

**Q.** And the pest or weed control at 125 g/ha ([3]; visual injury after approximately 10 d, 0 to 100 scale (0 no effect, 100 complete control), read-out: Plant response rating, Galium)?
**A.** 0%

**Q.** What about the pest or weed control at 31 g/ha ([3]; Postemergence, 31 g ai/ha, visual injury after approx. 10 d, 0 to 100 scale, 0 no effect, 100 complete control, read-out: Plant response rating, Galium) of the same molecule?
**A.** 0%

**Q.** And the pest or weed control at 125 g/ha ([4]; visual injury after approximately 10 d, 0 to 100 scale (0 no effect, 100 complete control), read-out: Plant response rating, Barnyardgrass)?
**A.** 0%

**Q.** What about the pest or weed control at 31 g/ha ([4]; Postemergence, 31 g ai/ha, visual injury after approx. 10 d, 0 to 100 scale, 0 no effect, 100 complete control, read-out: Plant response rating, Barnyardgrass) of the same molecule?
**A.** 0%

**Q.** And the pest or weed control at 125 g/ha ([5]; visual injury after approximately 10 d, 0 to 100 scale (0 no effect, 100 complete control), read-out: Plant response rating, Foxtail, Giant)?
**A.** 0%

**Q.** What about the pest or weed control at 31 g/ha ([5]; Postemergence, 31 g ai/ha, visual injury after approx. 10 d, 0 to 100 scale, 0 no effect, 100 complete control, read-out: Plant response rating, Foxtail, Giant) of the same molecule?
**A.** 0%

**Q.** And the plant injury at 31 g/ha ([6]; 31 g ai/ha, visual injury after approx. 10 d, 0 to 100 scale, 0 no effect, 100 complete control)?
**A.** 0%

**Q.** What about the pest or weed control at 125 g/ha ([7]; visual injury after approximately 10 d, 0 to 100 scale (0 no effect, 100 complete control), read-out: Plant response rating, Blackgrass) of the same molecule?
**A.** 0%

**Q.** And the pest or weed control at 31 g/ha ([7]; Postemergence, 31 g ai/ha, visual injury after approx. 10 d, 0 to 100 scale, 0 no effect, 100 complete control, read-out: Plant response rating, Blackgrass)?
**A.** 0%

**Q.** And the pest or weed control at 125 g/ha ([8]; visual injury after approximately 10 d, 0 to 100 scale (0 no effect, 100 complete control), read-out: Plant response rating, Ragweed)?
**A.** 0%

**Q.** What about the pest or weed control at 31 g/ha ([8]; Postemergence, 31 g ai/ha, visual injury after approx. 10 d, 0 to 100 scale, 0 no effect, 100 complete control, read-out: Plant response rating, Ragweed) of the same molecule?
**A.** 0%

**Q.** And the pest or weed control at 250 g/ha [9, 12]?
**A.** 25%

**Q.** And the pest or weed control at 250 g/ha [10, 12]?
**A.** 25%

**Q.** And the pest or weed control at 250 g/ha [11, 12]?
**A.** 0%

**Q.** What about the pest or weed control at 250 g/ha (rice (Oryra sativa); [12]) of the same molecule?
**A.** 0%

**Q.** `CN1C[C@H](c2ccc(F)c(C#N)c2)[C@@H](C(=O)Nc2ccccc2F)C1=O` [Compound 1254] was tested. Which plant injury at 125 g/ha (corn (Zea mays); 125 g ai/ha, postemergence, visual injury vs untreated controls after approx. 10 d, 0 = no effect, 100 = complete control, read-out: Corn plant response rating (0 to 100 scale)) did it give?
**A.** 20%

**Q.** What about the Corn plant response rating (crop injury, 0 = no effect, 100 = complete kill) at 500 g/ha (corn (Zea mays); Postemergence, 500 g ai/ha, visual injury, 0 to 100 scale (0 no effect, 100 complete control), approx. 10 d) of the same molecule?
**A.** 50%

**Q.** What about the pest or weed control at 125 g/ha (Kochia (Kochia scoparia); visual injury vs untreated controls after approx. 10 d, 0 = no effect, 100 = complete control, read-out: Kochia plant response rating (0 to 100 scale)) of the same molecule?
**A.** 0%

**Q.** What about the pest or weed control at 500 g/ha (Kochia (Kochia scoparia); Postemergence, 500 g ai/ha, visual injury, 0 to 100 scale (0 no effect, 100 complete control), approx. 10 d, read-out: Plant response rating, Kochia) of the same molecule?
**A.** 40%

**Q.** What about the pest or weed control at 125 g/ha ([1]; visual injury vs untreated controls after approx. 10 d, 0 = no effect, 100 = complete control, read-out: Ryegrass, Italian plant response rating (0 to 100 scale)) of the same molecule?
**A.** 0%

**Q.** What about the pest or weed control at 500 g/ha ([1]; Postemergence, 500 g ai/ha, visual injury, 0 to 100 scale (0 no effect, 100 complete control), approx. 10 d, read-out: Plant response rating, Ryegrass, Italian) of the same molecule?
**A.** 70%

**Q.** What about the pest or weed control at 125 g/ha ([2]; visual injury vs untreated controls after approx. 10 d, 0 = no effect, 100 = complete control, read-out: Pigweed plant response rating (0 to 100 scale)) of the same molecule?
**A.** 0%

**Q.** And the pest or weed control at 500 g/ha ([2]; Postemergence, 500 g ai/ha, visual injury, 0 to 100 scale (0 no effect, 100 complete control), approx. 10 d, read-out: Plant response rating, Pigweed)?
**A.** 20%

**Q.** What about the pest or weed control at 125 g/ha ([3]; visual injury vs untreated controls after approx. 10 d, 0 = no effect, 100 = complete control, read-out: Galium plant response rating (0 to 100 scale)) of the same molecule?
**A.** 30%

**Q.** What about the pest or weed control at 500 g/ha ([3]; Postemergence, 500 g ai/ha, visual injury, 0 to 100 scale (0 no effect, 100 complete control), approx. 10 d, read-out: Plant response rating, Galium) of the same molecule?
**A.** 50%

**Q.** And the pest or weed control at 125 g/ha ([4]; visual injury vs untreated controls after approx. 10 d, 0 = no effect, 100 = complete control, read-out: Barnyardgrass plant response rating (0 to 100 scale))?
**A.** 80%

**Q.** What about the pest or weed control at 500 g/ha ([4]; Postemergence, 500 g ai/ha, visual injury, 0 to 100 scale (0 no effect, 100 complete control), approx. 10 d, read-out: Plant response rating, Barnyardgrass) of the same molecule?
**A.** 90%

**Q.** What about the pest or weed control at 125 g/ha ([5]; visual injury vs untreated controls after approx. 10 d, 0 = no effect, 100 = complete control, read-out: Foxtail, Giant plant response rating (0 to 100 scale)) of the same molecule?
**A.** 80%

**Q.** And the pest or weed control at 500 g/ha ([5]; Postemergence, 500 g ai/ha, visual injury, 0 to 100 scale (0 no effect, 100 complete control), approx. 10 d, read-out: Plant response rating, Foxtail, Giant)?
**A.** 80%

**Q.** What about the plant injury at 500 g/ha ([6]; 500 g ai/ha, visual injury, 0 to 100 scale (0 no effect, 100 complete control), approx. 10 d) of the same molecule?
**A.** 40%

**Q.** What about the pest or weed control at 125 g/ha ([7]; visual injury vs untreated controls after approx. 10 d, 0 = no effect, 100 = complete control, read-out: Blackgrass plant response rating (0 to 100 scale)) of the same molecule?
**A.** 0%

**Q.** And the pest or weed control at 500 g/ha ([7]; Postemergence, 500 g ai/ha, visual injury, 0 to 100 scale (0 no effect, 100 complete control), approx. 10 d, read-out: Plant response rating, Blackgrass)?
**A.** 40%

**Q.** What about the pest or weed control at 125 g/ha ([8]; visual injury vs untreated controls after approx. 10 d, 0 = no effect, 100 = complete control, read-out: Ragweed plant response rating (0 to 100 scale)) of the same molecule?
**A.** 0%

**Q.** What about the pest or weed control at 500 g/ha ([8]; Postemergence, 500 g ai/ha, visual injury, 0 to 100 scale (0 no effect, 100 complete control), approx. 10 d, read-out: Plant response rating, Ragweed) of the same molecule?
**A.** 0%

**Q.** And the pest or weed control at 250 g/ha [9, 13]?
**A.** 100%

**Q.** And the pest or weed control at 250 g/ha [10, 13]?
**A.** 0%

**Q.** What about the pest or weed control at 250 g/ha [11, 13] of the same molecule?
**A.** 60%

**Q.** What about the pest or weed control at 250 g/ha (rice (Oryra sativa); [13]) of the same molecule?
**A.** 0%
